# Reference: patent US8754101B2, “N-cyclobutyl-imidazopyridine-methylamine as TRPV1 antagonists” (Glaxo Group Limited, priority 2011, dated 2014)
# Where a name gives a salt, the structure may show the parent alone.
# System: i.v. Capsaicin Induced Bronchoconstriction
# Assay: Inhibition of i.v. capsaicin induced bronchoconstriction in anesthetized guinea pigs
# Type: in vivo
# Conditions: Cavia porcellus, intra-tracheal dosing 1 hour before capsaicin 20 ug/kg i.v., estimated from dose response 0.005-5 mg/kg
# Protocol: Male Hartley Guinea Pigs weighing between 400 and 700 g were anesthetized with ketamine/xylazine mixture (88/15 mg/kg, i.m.). Animals were placed on their back, a toe pinch was performed to ensure depth of anaesthesia and a section of skin and fur was dissected away from the neck. The trachea, jugular vein, and carotid artery were isolated and cannulated to allow for ventilation, drug delivery, and blood pressure monitoring. Compounds were delivered via intra-tracheal delivery (in 200 uL of 0.5% Tween 80) 1 hour before capsaicin challenge. Depth of anaesthesia was confirmed by toe pinch and the Guinea pigs were placed in the full body plethysmograph. The chamber was closed and the animal was paralyzed by administration of Gallamine (2 mg/kg i.v.). Animals were ventilated at ˜1.0 mL/110 g, 60-65 breaths per minute by a Harvard Apparatus rodent respirator. Blood pressure and heart rate were continuously monitored to assess the level of anaesthesia, with supplemental anaesthetic doses given as required to maintain the proper level of anaesthesia. […] The BioWindow Cardio Pulmonary Software version 1.02 (Modular Instruments, Inc.) recorded arterial pressure, pulmonary pressure and airflow. Air pressure delta (difference between maximum and minimum air pressure) was used as the primary readout of inhibition of the capsaicin induced bronchoconstriction. […]
row,Compound,ED50
1,"Cl.Fc1ccc(O[C@H]2C[C@H](NCc3cccn4ccnc34)C2)cc1C(F)(F)F [Example 7A, trans-3-{[4-Fluoro-3-(trifluoromethyl)phenyl]oxy}-N-(imidazo[1,2-a]pyridin-8-ylmethyl)cyclobutanamine, hydrochloride salt]",0.033 mg/kg

# Same assay, conditions: dose 30 ug/kg intra-tracheal, 1 hour before capsaicin 20 ug/kg i.v., n=3
row,Compound,inhibition of capsaicin induced bronchoconstriction
1,"OCc1ccc(CN[C@H]2C[C@H](Oc3cccc(Cl)c3Cl)C2)c2nccn12 [Example 13, {8-[({trans-3-[(2,3-Dichlorophenyl)oxy]cyclobutyl}amino)methyl]imidazo[1,2-a]pyridin-5-yl}methanol]",61% (+/−16.6%)

# Molecular target: T1, TRPV1 receptor (Homo sapiens, UniProt Q8NER1)
# T1 construct: expressed in transfected cells; host or cells: HEK-293 cells stably expressing mitochondrial targeted Aequorin, transduced with TRPV1 BacMam
# Assay: Capsaicin assay for TRPV1 receptor antagonism (aequorin luminescence, HEK-293 cells expressing TRPV1)
# Type: cell-based
# Conditions: HEK-293 cells expressing TRPV1, pH 7.4, challenge with 4×EC50 capsaicin, 15 min preincubation; read-out: pIC50 in the Capsaicin assay (converted)
# Protocol: Assays for the functional inhibition of TRPV1 Ion Channel by test compound using Capsaicin or Acid Stimulus challenge were performed.
# Compounds were dissolved in DMSO to 1 mM. An 11 point 4 fold serial dilution was prepared and 0.5 ul dispensed into Greiner black clear bottom 384 well plates.
# HEK-293 cells stably expressing mitochondrial targeted Aequorin were transfected with TRPV1 receptor bacmam at scale for cryopreservation in 1 ml vial aliquots. Cells can be stored at −140° C. for up to 18 months.
# 18-20 hours before assay, cells were rapidly thawed in a water bath at 37° C. and transferred to a 50 ml Falcon tube. Cells were resuspended in 9 mls of M1 ‘generic’ media (DMEM/F12 with 10% dialysed FBS-Invitrogen 041-95750V) for every 1 ml cells and then centrifuged for 5 min at 1000 rpm. The cell pellet was resuspended in ˜10 mls loading buffer (Tyrodes Base Buffer*+0.1% Pluronic Acid F68 solution+0.1% BSA) and the pH was adjusted to 7.4 for Capsaicin stimulus assay or 6.7 for Acid stimulus assay. Cell density was calculated using the Trypan Blue stain method and adjusted to 2.5×10 e6 cells/ml using loading buffer. Coelentrazine (DiscoverX Cat. No 0-0084L-500 uM stock made in 100% ethanol) was added to a final concentration of 5 uM and the falcon tube was covered in foil (to protect from light) and placed on a windmill rotator at room temperature for approximately 20 hours. *Base Buffer=Sigma kit T2145 was dissolved in deionised water, 20 mL HEPES solution (Sigma H0887) and 13.4 mL of NaHCO3 (Sigma S8761) and made up to 1 L.
# After loading, a cell count was taken and cell density adjusted accordingly depending on assay stimulus.
# For Capsaicin stimulus assay cells were diluted to 1.25×10 e5 cells/ml using dilution buffer (Tyrodes Base Buffer+0.1% Pluronic Acid F68 solution) at pH 7.4
# To the compound plates, the following additions were made:
# 20 ul dilution buffer at pH 7.4 followed by 20 ul cells were added to the test compound plate and any agonist activity measured as luminescence AUC counts. The compound/cell mix was incubated for 15 minutes and then challenged with 20 ul of a 4×EC50 concentration of Capsaicin (calculated on the day of assay), with concomitant luminescence detection.
# AUC data was exported from the reader and data analysis was performed using 4 parameter logistic model, with data normalised to nominal high and low controls within plate.
# T1 sequence (Q8NER1 whole entry): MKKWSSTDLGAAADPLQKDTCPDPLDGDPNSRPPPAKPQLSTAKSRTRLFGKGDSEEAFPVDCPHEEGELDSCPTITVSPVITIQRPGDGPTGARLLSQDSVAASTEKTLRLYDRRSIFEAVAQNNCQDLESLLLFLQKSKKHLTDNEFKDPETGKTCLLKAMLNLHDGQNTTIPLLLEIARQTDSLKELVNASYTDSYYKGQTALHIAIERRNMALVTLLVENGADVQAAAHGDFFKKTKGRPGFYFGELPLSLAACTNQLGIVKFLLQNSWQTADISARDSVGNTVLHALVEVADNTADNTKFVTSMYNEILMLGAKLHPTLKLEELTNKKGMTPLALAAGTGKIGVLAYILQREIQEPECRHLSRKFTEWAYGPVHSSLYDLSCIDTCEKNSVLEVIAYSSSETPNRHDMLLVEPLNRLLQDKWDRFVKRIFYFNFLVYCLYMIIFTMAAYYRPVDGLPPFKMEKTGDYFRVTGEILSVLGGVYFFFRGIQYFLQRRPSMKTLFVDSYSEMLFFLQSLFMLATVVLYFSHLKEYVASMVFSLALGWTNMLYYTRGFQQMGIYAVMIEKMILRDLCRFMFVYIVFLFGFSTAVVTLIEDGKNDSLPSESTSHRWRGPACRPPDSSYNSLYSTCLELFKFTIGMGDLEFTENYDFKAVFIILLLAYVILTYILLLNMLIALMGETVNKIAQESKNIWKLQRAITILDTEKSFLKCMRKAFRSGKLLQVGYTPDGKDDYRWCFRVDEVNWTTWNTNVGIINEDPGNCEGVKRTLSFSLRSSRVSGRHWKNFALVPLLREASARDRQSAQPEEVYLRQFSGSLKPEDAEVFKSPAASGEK
row,Compound,IC50
1,"Fc1ccc(O[C@H]2C[C@H](NCc3cccn4ccnc34)C2)cc1Cl [Example 5, trans-3-[(3-Chloro-4-fluorophenyl)oxy]-N-(imidazo[1,2-a]pyridin-8-ylmethyl)cyclobutanamine, trifluoroacetate]",1.26 to 100 nM
2,"OCc1ccc(CN[C@H]2C[C@H](Oc3cccc(Cl)c3Cl)C2)c2nccn12 [Example 13, {8-[({trans-3-[(2,3-Dichlorophenyl)oxy]cyclobutyl}amino)methyl]imidazo[1,2-a]pyridin-5-yl}methanol]",1.26 to 100 nM
3,"Clc1cccc(O[C@H]2C[C@H](NCc3cccn4ccnc34)C2)c1Cl [Example 2, trans-3-[(2,3-Dichlorophenl)oxy]-N-(imidazo[1,2-a]pyridin-8-ylmethyl)cyclobutanamine]",1.26 to 100 nM
4,"OCc1cnc2c(CN[C@H]3C[C@H](Oc4cccc(Cl)c4Cl)C3)cccn12 [Example 15, {8-[({trans-3-[(2,3-Dichlorophenyl)oxy]cyclobutyl}amino)methyl]imidazo[1,2-a]pyridin-3-yl}methanol]",1.26 to 100 nM

# Results, then the compound that gave them:
row,IC50,Compound
1,1.26 to 100 nM,"CC(C)(C)c1c(F)cc(O[C@H]2C[C@@H](NCc3cccn4ccnc34)C2)cc1F [Example 12, cis-3-{[4-(1,1-Dimethylethyl)-3,5-difluorophenyl]oxy}-N-(imidazo[1,2-a]pyridin-8-ylmethyl)cyclobutanamine]"
2,1.26 to 100 nM,"Fc1ccc(O[C@H]2C[C@H](NCc3cccn4ccnc34)C2)cc1C(F)(F)F [Example 7, trans-3-{[4-Fluoro-3-(trifluoromethyl)phenyl]oxy}-N-(imidazo[1,2-a]pyridin-8-ylmethyl)cyclobutanamine]"
3,1.26 to 100 nM,"FC(F)(F)c1ccc(O[C@H]2C[C@H](NCc3cccn4ccnc34)C2)c(Cl)c1 [Example 8, trans-3-{[2-Chloro-4-(trifluoromethyl)phenyl]oxy}-N-(imidazo[1,2-a]pyridin-8-ylmethyl)cyclobutanamine]"
4,1.26 to 100 nM,"FC(F)(F)c1cccc(O[C@H]2C[C@H](NCc3cccn4ccnc34)C2)c1 [Example 1, trans-N-(Imidazo[1,2-a]pyridin-8-ylmethyl)-3-{[3-(trifluoromethyl)phenyl]oxy}cyclobutanamine]"
5,1.26 to 100 nM,"CC(C)(C)c1c(F)cc(O[C@H]2C[C@H](NCc3cccn4ccnc34)C2)cc1F [Example 11, trans-3-{[4-(1,1-Dimethylethyl)-3,5-difluorophenyl]oxy}-N-(imidazo[1,2-a]pyridin-8-ylmethyl)cyclobutanamine]"
6,1.26 to 100 nM,"FC(F)(F)c1cc(O[C@H]2C[C@H](NCc3cccn4ccnc34)C2)ccc1Cl [Example 6, trans-3-{[4-Chloro-3-(trifluoromethyl)phenyl]oxy}-N-(imidazo[1,2-a]pyridin-8-ylmethyl)cyclobutanamine]"
7,1.26 to 100 nM,"OCc1ccc(CN[C@H]2C[C@H](Oc3ccc(F)c(C(F)(F)F)c3)C2)c2nccn12 [Example 14, (8-{[(trans-3-{[4-Fluoro-3-(trifluoromethyl)phenyl]oxy}cyclobutyl)amino]methyl}imidazo[1,2-a]pyridin-5-yl)methanol]"
8,1.26 to 100 nM,"FC(F)(F)c1cccc(O[C@H]2C[C@H](NCc3cccn4ccnc34)C2)c1Cl [Example 4, trans-3-{[2-Chloro-3-(trifluoromethyl)phenyl]oxy}-N-(imidazo[1,2-a]pyridin-8-ylmethyl)cyclobutanamine]"
9,1.26 to 100 nM,"FC(F)(F)c1cc(Cl)ccc1O[C@H]1C[C@H](NCc2cccn3ccnc23)C1 [Example 9, trans-3-{[4-Chloro-2-(trifluoromethyl)phenyl]oxy}-N-(imidazo[1,2-a]pyridin-8-ylmethyl)cyclobutanamine]"

# System: not listed separately
# Assay: Solubility in simulated lung fluid
# Type: physicochemical
# Conditions: Phosphate buffer, pH 6.9, 0.75 mM lecithin, 0.1% BSA, 37° C. over 4 hours
row,solubility at 4 h,Compound
1,1780 µg/mL,"Fc1ccc(O[C@H]2C[C@H](NCc3cccn4ccnc34)C2)cc1C(F)(F)F.O=C(O)/C=C\C(=O)O [Example 7B, trans-3-{[4-Fluoro-3-(trifluoromethyl)phenyl]oxy}-N-(imidazo[1,2-a]pyridin-8-ylmethyl)cyclobutanamine, maleate salt]"
